Results on five compounds are retold here after patent US8512733B2, “Stents with drug-containing amphiphilic polymer coating” (Abbott Laboratories, priority 2001, dated 2013).

For data set [1] the following is noted: P is the octanol/water partition coefficient; cited from earlier work.
Data set [2] can be described thus: pyrene fluorescence I3/I1 ratio in different environments. To be noted: peaks at 383 nm (I3) and 373 nm (I1), excitation 335 nm, label = environment of the pyrene. The class given is physicochemical.
Protocol: Zwitterionic polymer coatings were investigated by allowing pyrene to diffuse into the polymer and studying the degree to which it is taken up, and the effects on the ratio of the fluorescence band intensities to see if there is any significant indication of the type of environment present.
The solution was used to coat polymethylmethacrylate (PMMA) fluorescence cuvettes by simply pouring into the cuvette, draining, following by an oven curing at 70° C. overnight.
The fluorescence spectrum was recorded using an excitation wavelength of 335 nm and scanned from 350-440 nm on a PE LS 50B Luminescence Spectrophotometer. Subtraction of the spectrum of each coating in water was necessary to remove the interference of a small band at 380 nm present in all methacrylate systems.
Environment information could be obtained by comparing the ratio of the intensity of the peaks at 373 nm (I1) and 383 nm (I3) (I3/I1). Where I3/I1 was similar for polymer systems, the comparative amount of pyrene present could be estimated by the maximum intensity of I1; alternatively, the entire peak area may offer an alternative measure of the comparative amount of pyrene present in different coatings. It was important to mark the side of the cuvette to ensure the same orientations were achieved each time it was replaced in the spectrophotometer.
Pyrene solution added to the coated cuvettes was allowed to stand for 16 h, the cuvette emptied and washed thoroughly with ultrapure water, refilled with ultrapure water and the fluorescence spectrum recorded. The comparative maximum height of I1 was used to estimate the relative amounts of pyrene in the coatings. This was repeated for three cuvettes of each polymer and the average taken.
A short description of data set [3]: Release of 17β-estradiol from stents, stirred 1000 ml PBS at 37° C. The format is physicochemical. To be noted: five stents vigorously stirred in 1000 ml PBS at 37° C., 24 hour period. On the procedure: The elution profile for 17β-estradiol, FIG. 6 from the stents produced in example 1.1, was assessed using an in-vitro test where five stents were vigorously stirred in a large volume (1000 ml) of PBS saline solution at 37° C. […] Aliquots of buffer were removed at various time points over a 24 hour period and analysed for 17β-estradiol content. When translated into in-vivo conditions, the release profile is predicted to be over a prolonged period of time.

Data set [4] is described as follows: Estradiol elution studies at 25° C., non-flow system. The format is physicochemical. To be noted: at 4 hours, 5 ml PBS on rollers, 15 mm DD stents from Example 1.1. The method, then:
Elution studies were carried out at 25° C. for […] in gently agitated PBS. This was done by placing 15 mm DD stents loaded with estradiol, from Example 1.1 individually in vials containing 5 ml phosphate buffered saline (PBS) on rollers. At various time intervals up to 7 hours a 1 ml aliquot was removed and replaced with 1 ml fresh PBS. The stents and water aliquots were measured, to give the amount of drug eluted and the amount of drug remaining on the stents.

The subject of the next data set is porcine arteries. The experiment in a line: In vivo test on estradiol loaded stents. To be noted: one month.
Data set [5] in a line: Estradiol elution studies in flow-system at 37° C. The format is physicochemical. To be noted: 100 ml/min, 500 ml PBS, 8 hour period. On the procedure:
The elution of estradiol was examined in a flow system at 37° C. and evaluated over an 8 hour period. PBS was maintained at 37° C. in six stirred reservoirs (500 ml each) within a water bath. A length of silicone tubing (3 mm internal diameter) was attached from each reservoir to one of six stent chambers (4 mm internal diameter 80 mm long) and back to the respective reservoir via a peristaltic pump. The system was pumped using a flow rate of 100 ml/min to reach equilibrium temperature of 37° C. The flow was stopped and two estradiol loaded 15 mm stents loaded as in Example 1 were placed in each of the six stent chambers, and flow recommenced. A stent was then removed at various time periods and wick dried. These were used to measure the amount of estradiol remaining on the stent. […]. Since the total volume of PBS passing over the stents in the flow model is […], it is likely that throughout the period the rate of desorption of drug from the stent was higher than the rate of absorption from the environment. This condition may not apply to the non-flow method.

For data set [6] the following is noted: pyrene fluorescence; cited from earlier work.

By log P is commonly meant a log measure of how a compound divides between an organic and an aqueous phase. Turning to `C[C@H]1C[C@@H]2[C@H]([C@@H](O)C[C@@]3(C)[C@H]2CC[C@]3(O)C(=O)CO)[C@@]2(C)C=CC(=O)C=C12` [MP, 6α-methylprednisolone], the “log P” value in data set [1] is given as 1.42. For the compound `C=CC(=O)OCc1ccccc1` [benzyl acrylate monomer, benzyl acrylate], in data set [2], the I3/I1 ratio is given as 0.75. For the compound `C[C@]12CC[C@@H]3c4ccc(O)cc4CC[C@H]3[C@@H]1CC[C@@H]2O` [estradiol, 17β-estradiol], the release from stent result in data set [3] was “sustained release”. Moreover, in data set [4], the “estradiol still remaining on the stent” value came to 62%. Moreover, in the data set with porcine arteries, the Re-endothelialization scores result is reported as “does not inhibit the healing process”. Besides, the “elution compared with Example 2” value in data set [5] was “eluted relatively more quickly”. Take `C=C(C)C(=O)OCCCCCCCCCCCC` [lauryl methacrylate]: the I3/I1 ratio in data set [2] was found to be 1.029.

Consider `O` [water], for which the “I3/I1 ratio, literature value” in data set [6] is given as 0.63. Also, the I3/I1 ratio in data set [2] is reported as 0.633.
